Results on 9 molecules are retold here after patent US20240317727A1 (Duke University, priority 2018, published 2024).

The structures appear in SMILES notation.

For data set [1], the target named is T1, recombinant HSF1 DNA-binding domain (DBD) (Homo sapiens, UniProt Q00613).
T1 sequence (Q00613 15-120): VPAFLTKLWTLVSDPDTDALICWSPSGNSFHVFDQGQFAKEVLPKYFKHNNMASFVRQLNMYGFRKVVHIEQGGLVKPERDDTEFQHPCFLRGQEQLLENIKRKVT
The data set is described as follows: Differential Scanning Fluorimetry (DSF), HSF1 DBD melting temperature. To be noted: for ΔTm at 25 µM: Table 1, 5 μM HSF1 DBD, 25PM Compound, positive = stabilizes, negative = destabilizes HSF1; for effect on melting temperature of HSF1: thermal denaturation profiling, FIG. 2. Background: Differential scanning fluorimetry follows unfolding on heating by fluorescence.

In data set [2] the test system is C4-2 malignant prostate cancer cells vs BPH-1 non-tumorigenic prostate cells. The data set can be described thus: AlamarBlue cell viability, C4-2 vs BPH-1. Type of data set: cell-based, human. Conditions: FIG. 6A; for viability of C4-2 compared to BPH-1: 96 hours, AlamarBlue assay; for potency compared to Compound 0017: inhibition of metastatic prostate cancer cell growth. The protocol:
The cells were treated for 96 hours with the indicated concentrations of the compounds of the disclosure and cell viability was measured with the AlamarBlue assay. FIG. 6B illustrates the results of Compound 0017 used in a 7-week Maximal Tolerated Dose (MTD) study conducted in mice (3 mice identified as 118, 119 and 120). […] After sacrificing the mice on the last day of the administration, mouse liver and heart tissue was isolated, messenger RNA extracted and the transcript abundance of the HSF1 target gene, Hsp70, was evaluated by qRT-PCR relative to the internal RNA control, GAPDH. The results of the vehicle-treated versus Compound 0017-treated experiments were compared.
Based on the chemical structure of Compound 0017 and its activity, and of other HSF1-interacting chemicals identified in the screen, additional derivatives were designed, synthesized and evaluated for binding to HSF1 and preferential inhibition of metastatic prostate cancer cells (C4-2) versus benign prostate cells (BPH-1).
Background: The colour change of resazurin is a common sign of viable cells or microbes.

Data set [3] addresses recombinant protein Hsc70 (Homo sapiens, UniProt P11142). The data set is described as follows: Thermal denaturation of Hsc70 (selectivity). Conditions: selectivity in binding, FIG. 2.
Data set [4] relates to heat shock induced chaperone (Hsp25 and Hsp70) expression. The data set is described as follows: Heat shock induced chaperone expression in MEFs, immunoblotting. Type of data set: cell-based, mouse. To be noted: heat shock 42° C. 30 mins, 6-hour recovery, FIG. 3. How it is done:
The MEFs were then subjected to heat shock stress at 42° C. for 30 mins to activate HSF1. After heat shock, the MEFs were incubated at 37° C. for a 6-hour recovery. The whole cell lysates were collected at the end of the experiment, and proteins of interest, including Hsp25, Hsp70, HSF1 and GAPDH (as loading control) were assessed by immunoblotting with the corresponding antibody.
(Immunoblotting shows a protein as a band on a membrane.)

For data set [5], the target named is T2, purified recombinant human HSF1 (HSF1 DNA binding domain) (Homo sapiens, UniProt Q00613).
T2 sequence (Q00613 15-120): T1 sequence (Q00613 15-120)
The data set is described as follows: Melting temperature of HSF1 DBD with HSF1 degrader compounds (Sypro orange). Conditions: 12.5 micromolar compound, 5 micromolar HSF1 DBD, compared to DMSO; read-out: ΔTm (° C.). Put shortly: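 HSF1 DNA-binding domain at 5 μM final with Sypro orange was heated 25–85° C in 0.5° C steps with 12.5 μM compound or DMSO, in triplicate. Melting curves were fitted to a Boltzmann equation, and ΔTm was taken as compound minus DMSO melting temperature.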

Data set [6] deals with C4-2 prostate cancer cells. The data set can be described thus: C4-2 cell proliferation, Cell Titre Glo. To be noted: Homo sapiens, 48-hour period, 9-point dilution series, read-out: Cell Viability IC50. Type of data set: cell-based. How it is done: Next, cell viability of C4-2 prostate cancer cells was determined. C4-2 prostate cancer cells were grown in RMPI-1640 (no L-glutamine, Gibco 21870076) supplemented with 10% fetal bovine […] (non-heat-inactivated, Cytiva Hyclone SH30071.03). […] A 9-point dilution series was used to assess the ability of each compound to inhibit the growth of C4-2 prostate cancer cells over a 48-hour period, as compared to negative control solvent, DMSO. Cell proliferation was measured by the Cell Titre Glo assay using 384 well microtiter plate reader to quantitate luminescence. The IC50 was determined from the values obtained.

The next data set deals with DNAJB1 equals Hsp40. The data set can be described thus: HSF1 target gene transcript expression qPCR in C4-2 cells, Hsp40. Type of data set: cell-based. Conditions: Homo sapiens, 2 hours then SNX-2112 (100 nM) 5 hr, vs GAPDH and DMSO. The protocol: (§1) Next, the change in heat shock protein gene expression in C4-2 prostate cancer cells was determined. C4-2 prostate cancer cells were grown in RMPI-1640 (no L-glutamine, Gibco 21870076) supplemented with 10% fetal bovine […] (non-heat-inactivated, Cytiva Hyclone SH30071.03). To quantitatively measure the inhibition of HSF1 activity in C4-2 prostate cancer cells, compounds or DMSO were added to triplicate C4-2 cell cultures for 2 hours. HSF1 activity was then stimulated with the Hsp90 inhibitor SNX-2112 (100 nM) for an additional 5 hr at 37° C. in the presence of HSF1 degrader compounds or DMSO. Total RNA was extracted, converted to cDNA and used in qPCR assays to quantify the change in HSF1 target gene transcript expression (HSPA4L equals Hsp70, HSPB1 equals Hsp27 and DNAJB1 equals Hsp40) as compared to GAPDH internal control gene, and then compared to DMSO negative control.

Another data set deals with Hsp70. The data set is described as follows: HSF1 target gene transcript expression qPCR in C4-2 cells, Hsp70. Type of data set: cell-based. Conditions: Homo sapiens, 2 hours then SNX-2112 (100 nM) 5 hr, vs GAPDH and DMSO. The protocol:
as §1

Data set [7] is described as follows: Rat liver microsome stability. The format is in vitro ADME. To be noted: rat liver microsomes, 37° C., read-out: Microsome Stability T1/2. How it is done:
Next, the microsome stability in rats was determined for select compounds from Table 5. Test compounds are incubated with rat liver microsomes supplemented with co-factors at 37° C. Typical conditions were a compound concentration of 1 μM and 5 sampling time-points (0, 5, 15, 30 and 45 minutes), in duplicate. At each time-point, the reactions were terminated by the addition of organic solvent. The samples were centrifuged and the parent compound concentration was evaluated by LC-MS/MS measurements. Control compounds were included with well-established stability when incubated with rat microsomes. Multiple time points were used to determine % parent compound remaining at each time point and to calculate the Tiu2 for each compound in rat liver microsomes. A higher T1/2 indicates increased compound stability in microsomes.

Chain of recombinant protein Hsc70 (P11142 whole entry, species assumed): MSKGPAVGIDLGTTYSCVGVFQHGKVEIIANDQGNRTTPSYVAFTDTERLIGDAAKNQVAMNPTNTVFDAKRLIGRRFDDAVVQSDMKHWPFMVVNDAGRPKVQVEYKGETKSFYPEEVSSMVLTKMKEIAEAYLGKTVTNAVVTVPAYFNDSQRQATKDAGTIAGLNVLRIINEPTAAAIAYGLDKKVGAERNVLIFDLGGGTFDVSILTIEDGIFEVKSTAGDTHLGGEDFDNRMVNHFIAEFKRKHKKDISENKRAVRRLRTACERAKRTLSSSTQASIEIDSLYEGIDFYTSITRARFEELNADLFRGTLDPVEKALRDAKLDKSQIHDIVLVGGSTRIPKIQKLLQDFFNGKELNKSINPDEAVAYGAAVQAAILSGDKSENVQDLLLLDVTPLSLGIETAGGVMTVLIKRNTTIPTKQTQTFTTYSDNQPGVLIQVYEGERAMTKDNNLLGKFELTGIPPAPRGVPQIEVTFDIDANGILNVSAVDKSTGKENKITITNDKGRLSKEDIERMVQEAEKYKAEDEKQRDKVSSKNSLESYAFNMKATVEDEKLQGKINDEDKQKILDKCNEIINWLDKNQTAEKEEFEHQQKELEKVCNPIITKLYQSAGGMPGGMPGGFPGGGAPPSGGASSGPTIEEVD

Turning to `O=C(Nc1ccc(F)cc1)Nc1ccc(Cl)c(S(=O)(=O)C(F)(F)F)c1` [Compound 0054, 1-[4-chloro-3-(trifluoromethylsulfonyl)phenyl]-3-(4-fluorophenyl)urea], the ΔTm at 25 µM in data set [1] was 2.9 °C. Besides, in data set [2], the “viability of C4-2 compared to BPH-1” value was “preferentially inhibit the viability” and the “potency compared to Compound 0017” value is “increased potency compared to Compound 0017”.

As to `COc1cccc(-c2cnc(Nc3ccc(F)cc3)s2)c1` [Compound 0050], in data set [1], the ΔTm at 25 µM stood at 2.93 °C and the “effect on melting temperature of HSF1” value is “stabilized the melting temperature of HSF1”. Further, in data set [3], the “effect on melting of unrelated protein Hsc70” value is recorded as “did not affect the melting”.

Regarding `O=C(Nc1ccccc1)Nc1ccccc1` [1,3-diphenylurea, reference compound], the “binding to HSF1” value in data set [1] (thermal denaturation assay) is reported as “fails to bind HSF1”. In addition, the “heat shock induced chaperone (Hsp25 and Hsp70) expression” value in [4] is given as “showed no impact on HSF1 activity”.

For `O=C(Nc1ccc(Cl)cc1)Nc1csc([N+](=O)[O-])c1` [Compound 0009], in [1], the ΔTm at 25 µM was 4.1 °C and the “effect on melting temperature of HSF1” value is “stabilized the melting temperature of HSF1”. The “effect on melting of unrelated protein Hsc70” value in data set [3] is “did not affect the melting”.

As to `O=C(Nc1ccc(F)cc1)Nc1ccc(Br)c(C(F)(F)F)c1` [Compound 0005, 1-(4-bromo-3-(trifluoromethyl)phenyl)-3-(4-fluorophenyl)urea], in data set [1], the thermal shift (ΔTm) at 25 µM is 5.1 °C and the “effect on melting temperature of HSF1” value is “stabilized the melting temperature of HSF1”. Moreover, in data set [3], the “effect on melting of unrelated protein Hsc70” value was “did not affect the melting”.

As for `N#Cc1ccc(NC(=O)Nc2ccc(Cl)c(C(F)(F)F)c2)cc1` [Compound 242, 1-(4-chloro-3-(trifluoromethyl)phenyl)-3-(4-cyanophenyl)urea], in [5], the ΔTm at 12.5 µM came out at 2.62 °C. Further, the IC50 in data set [6] was found to be 1980 nM. Further, the mrna remaining at 10 µM stood at 71% in the data set with DNAJB1 equals Hsp40 and 55% in the data set with Hsp70. Further, the half-life at 1 μM in data set [7] worked out at 14.9 h.

With `O=c1c(Nc2ccc(F)cc2)c(Nc2ccc(Cl)c(C(F)(F)F)c2)c1=O` [Compound 0064, 3-[4-chloro-3-(trifluoromethyl)anilino]-4-(4-fluoroanilino)cyclobut-3-ene-1,2-dione], in [1], the ΔTm at 25 µM was 2.3 °C. In data set [2], the “viability of C4-2 compared to BPH-1” value is “preferentially inhibit the viability” and the “potency compared to Compound 0017” value is recorded as “increased potency compared to Compound 0017”.

On to `N#Cc1ccc(NC(=O)Nc2ccc(Cl)c(C(F)(F)F)c2)cc1C(F)(F)F` [Compound 258, 1-(4-chloro-3-(trifluoromethyl)phenyl)-3-(4-cyano-3-(trifluoromethyl)phenyl)urea], for which the ΔTm at 12.5 µM in data set [5] was determined as 2.26 °C. The IC50 in data set [6] is 1660 nM. Further, the mrna remaining at 10 µM with DNAJB1 equals Hsp40 is 65%; in the data set with Hsp70, 60%. For the same molecule, in data set [7], the half-life at 1 μM came out at 10.6 h.

Take `O=C(Nc1ccc(F)cc1)Nc1ccc(Cl)c([N+](=O)[O-])c1` [Compound 17, 1-(4-chloro-3-nitrophenyl)-3-(4-fluorophenyl)urea]: the ΔTm at 12.5 µM in data set [5] is 3.69 °C. In addition, the IC50 in data set [6] came out at 5610 nM. Besides, the mrna remaining at 10 µM with DNAJB1 equals Hsp40 came out at 23.6%; in the data set on Hsp70, 30.4%. Besides, the half-life at 1 μM in [7] was 1.54 h.

What is called ΔTm is the shift of the melting midpoint relative to a reference. As a reminder, the IC50 is the concentration needed to halve the response being measured.
